Measurements published in patent US20190100555A1, “EYE-CARE PEPTIDE, ITS COMPOSITION AND METHOD OF USING THE SAME” (PRO SUNFUN BIOTECH RESEARCH AND DEVELOPMENT CO., LTD., priority 2017, published 2019).
Peptide text beside a SMILES is read from it.

System: HCEC cells
Assay: MTT assay (cell viability)
Assay type: cell-based, Human
Method: Human corneal epithelial cell line, HCEC, was cultured in complete KSF containing keratinocyte-serum free medium, 5 ng/ml human recombinant EGF, 0.05 mg/ml bovine pituitary extract, 0.005 mg/ml insulin and 500 ng/ml hydrocortisone under 5% CO2 at 37° C.
Cells (2×10^4) in 1 ml complete KSF were seeded in 12-well plates with or without Peptide NO. 12. Seventy microliters of 5 mg/ml 3-(4,5-dimethyl-2-thiazolyl)-2,5-diphenyl-2H-tetrazolium bromide solution (MTT; Sigma) was added to each well for the indicated times and incubated at 37° C. for 3 hours, after which 700 μl 10% SDS in 0.01 N HCl was added to dissolve the MTT formazan crystals. The resultant optical density was measured spectrophotometrically at dual wavelengths, 550 and 630 nm.

For CC(C)C[C@H](NC(=O)[C@@H]1CCCN1C(=O)[C@H](CC(N)=O)NC(=O)[C@@H](N)CCCNC(=N)N)C(=O)N[C@@H](CCC(=O)O)C(=O)N[C@@H](CCC(=O)O)C(=O)N[C@H](C(=O)O)[C@@H](C)O [Peptide NO. 12, ArgAsnProLeuGluGluThr] (H-RNPLEET-OH), the “viability of HCEC cells” value (24 hours, 5, 10, 25 and 50 μg/ml) was “did not significantly affect viability” and the “viability of HCEC cells” value (48 hours, 5, 10, 25 and 50 μg/ml) was “did not significantly affect viability”.
